Source: patent publication US20230114728A1 (Venatorx Pharmaceuticals, Inc., priority 2019, published 2023)
Values after ≈ are worked out from the molar mass of the structure shown.

Legend:
Assay in all cases: Broth microdilution MIC in CAMHB
Format in all cases: cell-based
[1] = test system: K. pneumoniae SI-117 producing VIM-1; settings: Klebsiella pneumoniae, read-out: Minimum Inhibitory Concentration, K. pneumoniae SI-117
In short: (§1)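 Per CLSI broth microdilution, colonies were grown 3-5 h at 37° C in cation-adjusted Mueller Hinton broth, then diluted to a starting inoculum of 2-8×10^5 CFU/mL against 2-fold serial compound dilutions. Plates were incubated 16-20 h at 37° C, and MIC was read visually as the lowest concentration with no growth.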

[2] = test system: K. pneumoniae UMM producing SHV-5 and KPC-2; settings: Klebsiella pneumoniae, read-out: Minimum Inhibitory Concentration, K. pneumoniae UMM
In short: as §1

E. coli AG100A = settings: Escherichia coli, read-out: Minimum Inhibitory Concentration, E. coli AG100A
In short: as §1

P. aeruginosa ATCC 35151 = settings: Pseudomonas aeruginosa, ATCC35151; MHB; hyper-permeable strain; read-out: Minimum Inhibitory Concentration, P. aeruginosa ATCC 35151
In short: as §1

A. baumannii ATCC 19606 = settings: Acinetobacter baumannii, ATCC19606; MHB; read-out: Minimum Inhibitory Concentration, A. baumannii ATCC 19606
In short: as §1

[3] = test system: K. pneumoniae 848844 producing SHV-11 and KPC-2; settings: Klebsiella pneumoniae, read-out: Minimum Inhibitory Concentration, K. pneumoniae 848844
In short: as §1

E. coli AG100 = settings: Escherichia coli; E. coli AG100 (wild-type parent); MHB; read-out: Minimum Inhibitory Concentration, E. coli AG100
In short: as §1

E. coli 901C = settings: Escherichia coli; E. coli 901C (hyper-permeable); MHB; read-out: Minimum Inhibitory Concentration, E. coli 901C
In short: as §1

E. coli D22 = settings: Escherichia coli; E. coli D22 (hyper-permeable); MHB; read-out: Minimum Inhibitory Concentration, E. coli D22
In short: as §1

E. coli ATCC 25922 = settings: Escherichia coli, ATCC25922; E. coli ATCC 25922; MHB; read-out: Minimum Inhibitory Concentration, E. coli 25922
In short: as §1

P. aeruginosa ATCC 27853 = settings: Pseudomonas aeruginosa, ATCC27853; MHB; read-out: Minimum Inhibitory Concentration, P. aeruginosa ATCC 27853
In short: as §1

[4] = test system: P. aeruginosa (ΔmexAB-oprM); settings: Pseudomonas aeruginosa, read-out: Minimum Inhibitory Concentration, P. aeruginosa ΔmexAB-OprM
In short: as §1

Compound	MIC [1]	MIC [2]	MIC (E. coli AG100A)	MIC (P. aeruginosa ATCC 35151)	MIC (A. baumannii ATCC 19606)	MIC [3]	MIC (E. coli AG100)	MIC (E. coli 901C)	MIC (E. coli D22)	MIC (E. coli ATCC 25922)	MIC (P. aeruginosa ATCC 27853)	MIC [4]
CCN1CCN(C(=O)NC(C(=O)N[C@H]2Cc3cccc(C(=O)O)c3OB2O)c2cc(C#N)c(OC)cc2F)C(=O)C1=O (stereo partly drawn) [Example 192, (3R)-3-(2-(5-cyano-2-fluoro-4-methoxyphenyl)-2-(4-ethyl-2,3-dioxopiperazine-1-carboxamido)acetamido)-2-hydroxy-3,4-dihydro-2H-benzo[e][1,2]oxaborinine-8-carboxylic acid]	> 128 µg/mL	> 128 µg/mL	32 to 64 µg/mL (≈ 55 to 110 µM)	2 to 4 µg/mL (≈ 3.44 to 6.88 µM)	> 128 µg/mL	> 128 µg/mL	> 128 µg/mL	2 to 4 µg/mL (≈ 3.44 to 6.88 µM)	32 to 64 µg/mL (≈ 55 to 110 µM)	> 128 µg/mL	> 128 µg/mL	32 to 64 µg/mL (≈ 55 to 110 µM)
O=C(O)c1cccc2c1OB(O)[C@@H](NC(=O)C(NC(=O)N1CCN(CC3CNC3)C(=O)C1=O)c1c(F)cc(O)cc1F)C2 (stereo partly drawn) [Example 193, (3R)-3-(2-(4-(azetidin-3-ylmethyl)-2,3-dioxopiperazine-1-carboxamido)-2-(2,6-difluoro-4-hydroxyphenyl)acetamido)-2-hydroxy-3,4-dihydro-2H-benzo[e][1,2]oxaborinine-8-carboxylic acid]	32 to 64 µg/mL (≈ 53.2 to 106 µM)	8 to 16 µg/mL (≈ 13.3 to 26.6 µM)	0.5 to 1 µg/mL (≈ 0.831 to 1.66 µM)	0.5 to 1 µg/mL (≈ 0.831 to 1.66 µM)	> 128 µg/mL	32 to 64 µg/mL (≈ 53.2 to 106 µM)	8 to 16 µg/mL (≈ 13.3 to 26.6 µM)	0.5 to 1 µg/mL (≈ 0.831 to 1.66 µM)	2 to 4 µg/mL (≈ 3.33 to 6.65 µM)	8 to 16 µg/mL (≈ 13.3 to 26.6 µM)	> 128 µg/mL	8 to 16 µg/mL (≈ 13.3 to 26.6 µM)
CCN1CCN(C(=O)NC(C(=O)N[C@H]2Cc3cccc(C(=O)O)c3OB2O)c2ccc(C(=O)O)c(O)c2)C(=O)C1=O (stereo partly drawn) [Example 196, (3R)-3-(2-(4-carboxy-3-hydroxyphenyl)-2-(4-ethyl-2,3-dioxopiperazine-1-carboxamido)acetamido)-2-hydroxy-3,4-dihydro-2H-benzo[e][1,2]oxaborinine-8-carboxylic acid]	32 to 64 µg/mL (≈ 56.3 to 113 µM)	8 to 16 µg/mL (≈ 14.1 to 28.2 µM)	2 to 4 µg/mL (≈ 3.52 to 7.04 µM)	< 0.25 µg/mL	> 128 µg/mL	32 to 64 µg/mL (≈ 56.3 to 113 µM)	32 to 64 µg/mL (≈ 56.3 to 113 µM)	< 0.25 µg/mL	0.5 to 1 µg/mL (≈ 0.88 to 1.76 µM)	32 to 64 µg/mL (≈ 56.3 to 113 µM)	32 to 64 µg/mL (≈ 56.3 to 113 µM)	2 to 4 µg/mL (≈ 3.52 to 7.04 µM)
CCN1CCN(C(=O)NC(C(=O)N[C@H]2Cc3cccc(C(=O)O)c3OB2O)c2cc(NS(N)(=O)=O)ccc2F)C(=O)C1=O (stereo partly drawn) [Example 197, (3R)-3-(2-(4-ethyl-2,3-dioxopiperazine-1-carboxamido)-2-(2-fluoro-5-(sulfamoylamino)phenyl)acetamido)-2-hydroxy-3,4-dihydro-2H-benzo[e][1,2]oxaborinine-8-carboxylic acid]	32 to 64 µg/mL (≈ 51.6 to 103 µM)	8 to 16 µg/mL (≈ 12.9 to 25.8 µM)	0.5 to 1 µg/mL (≈ 0.806 to 1.61 µM)	< 0.25 µg/mL	32 to 64 µg/mL (≈ 51.6 to 103 µM)	> 128 µg/mL	8 to 16 µg/mL (≈ 12.9 to 25.8 µM)	< 0.25 µg/mL	0.5 to 1 µg/mL (≈ 0.806 to 1.61 µM)	8 to 16 µg/mL (≈ 12.9 to 25.8 µM)	> 128 µg/mL	2 to 4 µg/mL (≈ 3.22 to 6.45 µM)
NS(=O)(=O)Nc1ccc(F)c(C(NC(=O)N2CCN(CCF)C(=O)C2=O)C(=O)N[C@H]2Cc3cccc(C(=O)O)c3OB2O)c1 (stereo partly drawn) [Example 198, (3R)-3-(2-(2-fluoro-5-(sulfamoylamino)phenyl)-2-(4-(2-fluoroethyl)-2,3-dioxopiperazine-1-carboxamido)acetamido)-2-hydroxy-3,4-dihydro-2H-benzo[e][1,2]oxaborinine-8-carboxylic acid]	32 to 64 µg/mL (≈ 50.1 to 100 µM)	32 to 64 µg/mL (≈ 50.1 to 100 µM)	0.5 to 1 µg/mL (≈ 0.783 to 1.57 µM)	0.5 to 1 µg/mL (≈ 0.783 to 1.57 µM)	> 128 µg/mL	> 128 µg/mL	8 to 16 µg/mL (≈ 12.5 to 25.1 µM)	< 0.25 µg/mL	0.5 to 1 µg/mL (≈ 0.783 to 1.57 µM)	8 to 16 µg/mL (≈ 12.5 to 25.1 µM)	> 128 µg/mL	2 to 4 µg/mL (≈ 3.13 to 6.27 µM)
CCN1CCN(C(=O)NC(C(=O)N[C@H]2Cc3cccc(C(=O)O)c3OB2O)c2ccc(C(=O)O)c(Cl)c2Cl)C(=O)C1=O (stereo partly drawn) [Example 201, (3R)-3-(2-(4-carboxy-2,3-dichlorophenyl)-2-(4-ethyl-2,3-dioxopiperazine-1-carboxamido)acetamido)-2-hydroxy-3,4-dihydro-2H-benzo[e][1,2]oxaborinine-8-carboxylic acid]	> 128 µg/mL	> 128 µg/mL	32 to 64 µg/mL (≈ 51.5 to 103 µM)	0.5 to 1 µg/mL (≈ 0.805 to 1.61 µM)	> 128 µg/mL	> 128 µg/mL	> 128 µg/mL	0.5 to 1 µg/mL (≈ 0.805 to 1.61 µM)	2 to 4 µg/mL (≈ 3.22 to 6.44 µM)	> 128 µg/mL	> 128 µg/mL	8 to 16 µg/mL (≈ 12.9 to 25.8 µM)
CCN1CCN(C(=O)NC(C(=O)N[C@H]2Cc3cccc(C(=O)O)c3OB2O)c2cc(C#N)c(O)cc2F)C(=O)C1=O (stereo partly drawn) [Example 209, (3R)-3-(2-(5-cyano-2-fluoro-4-hydroxyphenyl)-2-(4-ethyl-2,3-dioxopiperazine-1-carboxamido)acetamido)-2-hydroxy-3,4-dihydro-2H-benzo[e][1,2]oxaborinine-8-carboxylic acid]	> 128 µg/mL	32 to 64 µg/mL (≈ 56.4 to 113 µM)	2 to 4 µg/mL (≈ 3.53 to 7.05 µM)	< 0.25 µg/mL	> 128 µg/mL	> 128 µg/mL	32 to 64 µg/mL (≈ 56.4 to 113 µM)	< 0.25 µg/mL	2 to 4 µg/mL (≈ 3.53 to 7.05 µM)	32 to 64 µg/mL (≈ 56.4 to 113 µM)	> 128 µg/mL	8 to 16 µg/mL (≈ 14.1 to 28.2 µM)
O=C(O)c1cccc2c1OB(O)[C@@H](NC(=O)C(NC(=O)N1CCN(C3CNC3)C(=O)C1=O)c1c(F)cc(O)cc1F)C2 (stereo partly drawn) [Example 212, (3R)-3-(2-(4-(azetidin-3-yl)-2,3-dioxopiperazine-1-carboxamido)-2-(2,6-difluoro-4-hydroxyphenyl)acetamido)-2-hydroxy-3,4-dihydro-2H-benzo[e][1,2]oxaborinine-8-carboxylic acid]	32 to 64 µg/mL (≈ 54.5 to 109 µM)	8 to 16 µg/mL (≈ 13.6 to 27.2 µM)	2 to 4 µg/mL (≈ 3.41 to 6.81 µM)	0.5 to 1 µg/mL (≈ 0.851 to 1.7 µM)	> 128 µg/mL	32 to 64 µg/mL (≈ 54.5 to 109 µM)	8 to 16 µg/mL (≈ 13.6 to 27.2 µM)	0.5 to 1 µg/mL (≈ 0.851 to 1.7 µM)	2 to 4 µg/mL (≈ 3.41 to 6.81 µM)	8 to 16 µg/mL (≈ 13.6 to 27.2 µM)	> 128 µg/mL	8 to 16 µg/mL (≈ 13.6 to 27.2 µM)
CCN1CCN(C(=O)NC(C(=O)N[C@H]2Cc3cccc(C(=O)O)c3OB2O)c2c(F)cc(NC(=O)NC)cc2F)C(=O)C1=O (stereo partly drawn) [Example 213, (3R)-3-(2-(2,6-difluoro-4-(3-methylureido)phenyl)-2-(4-ethyl-2,3-dioxopiperazine-1-carboxamido)acetamido)-2-hydroxy-3,4-dihydro-2H-benzo[e][1,2]oxaborinine-8-carboxylic acid]	> 128 µg/mL	32 to 64 µg/mL (≈ 51.9 to 104 µM)	2 to 4 µg/mL (≈ 3.24 to 6.49 µM)	0.5 to 1 µg/mL (≈ 0.811 to 1.62 µM)	> 128 µg/mL	> 128 µg/mL	32 to 64 µg/mL (≈ 51.9 to 104 µM)	< 0.25 µg/mL	2 to 4 µg/mL (≈ 3.24 to 6.49 µM)	32 to 64 µg/mL (≈ 51.9 to 104 µM)	> 128 µg/mL	2 to 4 µg/mL (≈ 3.24 to 6.49 µM)
